9 compounds from PubChem BioAssay (NCI) can be followed below.

Holding throughout (experiment): DTP human tumour cell line panel, 48 h
Test [1] deals with A549 NSCLC.
Test [2] has as its system HOP-92 NSCLC.
Test [3] relates to NCI-H226 lung.
Test [4] concerns RXF 393 renal.
Test [5] concerns SK-OV-3 ovarian.
Test [6] has as its system SN12C renal.
Test [7] concerns SNB-19 CNS.
Test [8] relates to SR leukemia.
Test [9] concerns T-47D breast.
The test system of test [10] is UACC-257 melanoma.

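Method: 48-hour compound exposure of cells in 96-well plates, five concentrations, linear interpolation of endpoints. The concentration for 50% growth inhibition is given as GI50. Definition used: TGI = concentration required for complete inhibition of growth.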 Some results are limits rather than exact numbers.

As usually defined, the GI50 is the concentration giving 50% growth inhibition. Broadly, the TGI is the concentration giving total growth inhibition. Read a low TGI as greater sensitivity of the cells. As to `COc1ccc(-c2n[nH]nc2-c2cc(OC)c(OC)c(OC)c2)cc1`, the 50% growth inhibitory concentration (GI50) in test [1] was < 10 nM; in test [2], < 0.0195 µM; in test [3], < 0.0225 µM; in test [4], < 10 nM; in [5], < 10 nM; in [6], < 0.01 µM. Moreover, the GI50 in [8] is < 10 nM; in [9], 2660 nM; in [10] it was < 10 nM. In addition, the TGI in [1] is 38.3 µM; in test [2], 30.6 µM; in [3] it was 82.7 µM; in test [4], 26.2 µM; in test [5], 440 nM; in test [6] it was > 100 µM. In addition, the total growth inhibition concentration (TGI) in [7] is > 100 µM; in test [8] it was > 47.9 µM; in test [9] it was 57.3 µM; in test [10] it was 31.2 µM.

For `CC(C)(C)c1cc(Br)c(O)c(CN(Cc2cc(C(C)(C)C)cc(Br)c2O)C2CCCCC2)c1`, the TGI amounted to 27.1 µM in [1]; 28.8 µM in test [2]; 29.1 µM in test [3]; 22.6 µM in [4]; 29200 nM in test [5]; 28 µM in test [6]. The TGI in [7] was found to be 27.1 µM; in test [8], 25.6 µM; in [9], 21.4 µM; in test [10], 16.5 µM.

With `CN1CCN(CCCOc2ccc3nc(Nc4ccc(Cl)c(C(F)(F)F)c4)ccc3c2)CC1`, the GI50 in test [1] was 14700 nM; in test [2], 5.46 µM; in test [3] it was 22.2 µM; in test [4], 12700 nM; in test [5], 18200 nM; in test [6] it was 13.8 µM. Also, the GI50 in test [7] was 16200 nM; in [8] it was 2700 nM; in test [9] it was 17600 nM; in test [10], 18800 nM. The TGI amounted to 28.9 µM in test [1]; 18.8 µM in [2]; 57.1 µM in test [3]; 28 µM in test [4]; 33000 nM in test [5]; 30.2 µM in test [6]. Moreover, the total growth inhibition concentration (TGI) came to 34.5 µM in test [7], 10.7 µM in test [8], 37.3 µM in test [9] and 33.4 µM in test [10].

Consider `COC1=C(C)C(=O)c2c(c(COC(N)=O)c3n2CC2C3N2C)C1=O` (stereo not drawn), for which the TGI in test [1] stood at 0.0645 µM; in [2], 0.453 µM; in test [3] it was 0.337 µM; in [4] it was 0.0671 µM; in test [5], 167 nM; in [6], 0.221 µM. Besides, the concentration for total growth inhibition (TGI) was 0.256 µM in test [7], < 0.0354 µM in test [8], 0.201 µM in [9] and 0.0641 µM in test [10].

With `CC(C)n1nc(-c2cc3cc(O)ccc3[nH]2)c2c(N)ncnc21`, the concentration for 50% growth inhibition (GI50) was 313 nM in [1]; 0.0344 µM in test [2]; 0.117 µM in [3]; 121 nM in [4]; 140 nM in [5]; 0.175 µM in test [6]. Also, the GI50 in test [7] is 1520 nM; in [8], 191 nM; in test [9] it was 43.5 nM; in test [10] it was 161 nM. In addition, the TGI in [1] came to 2.67 µM; in test [2], 0.483 µM; in [3], 1.31 µM; in test [4], 0.661 µM; in [5], 754 nM; in test [6] it was 6.43 µM. In addition, the TGI in [7] is 17.9 µM; in [8], 2.93 µM; in test [9], 0.417 µM; in [10], 1.7 µM.

Turning to `Cc1cccc(N2CCN(C(=S)c3ccc4c(c3)OCO4)CC2)c1`, the GI50 in [1] is 1070 nM; in test [2], 24.6 µM; in test [3] it was 41 µM; in test [4], 1140 nM; in test [5] it was 2190 nM; in test [7], 1640 nM. Besides, the figures for the GI50 in [8], in test [9] and in [10] were 557 nM, 934 nM and > 100000 nM, respectively. Moreover, the TGI was > 100 µM in [1]; > 100 µM in test [2]; > 100 µM in test [3]; 5.82 µM in test [4]; 83300 nM in [5]; > 100 µM in [7]. The TGI in test [8], in test [9] and in test [10] was > 100 µM in each case.

Turning to `NP(=O)(Oc1c2occc2cc2ccc(=O)oc12)N(CCCl)CCCl` (stereo not drawn), the TGI in test [1], in test [2], in test [3], in test [4], in [6] and in [7] was > 100 µM each time. Also, the TGI in test [8], in [9] and in test [10] was > 100 µM throughout.

For `COc1cc2c3c(n(CCCNC(=O)OCC4c5ccccc5-c5ccccc54)c(=O)c2cc1OC)-c1cc2c(cc1/C3=C\CCNC(=O)OCC1c3ccccc3-c3ccccc31)OCO2`, the GI50 is > 26600 nM in test [1]; > 40.7 µM in [2]; > 50 µM in test [3]; 5280 nM in test [4]; > 25600 nM in test [5]; > 50 µM in test [6]. Besides, the GI50 in test [7] was > 29600 nM; in test [8], 3290 nM; in [9], > 50000 nM; in [10] it was > 50000 nM. Moreover, the TGI was > 50 µM in test [1]; > 50 µM in test [2]; > 50 µM in test [3]; 14.6 µM in test [4]; > 50000 nM in [5]; > 50 µM in test [6]. The TGI in [7] is > 50 µM; in test [8], 21 µM; in test [9], > 50 µM; in test [10], > 50 µM.

For the compound `COc1cc(/C=C/c2cc(/C=C/c3ccc(O)c(OC)c3)n(C(=O)Nc3ccc(F)c(Cl)c3)n2)ccc1O`, the GI50 was 387 nM in [1]; 1.03 µM in [2]; 0.491 µM in test [3]; 249 nM in test [4]; 324 nM in test [5]; 514 nM in test [7]. Further, the GI50 was 41.5 nM in [8], 634 nM in [9] and 1180 nM in test [10]. The TGI stood at 3.47 µM in test [1]; 5.89 µM in [2]; 2.3 µM in test [3]; 0.828 µM in test [4]; 1430 nM in test [5]; 2.1 µM in [7]. The results for the TGI in test [9] and in test [10] were 2.32 µM and 5.32 µM, respectively.
